# Data taken from patent US9376436B2, “2-(pyridin-2yl)-1, 7-diaza-spiro [4.4] nonane-6-one compound as voltage-gated sodium channels modulators” (CONVERGENCE PHARMACEUTICALS LIMITED, priority 2011, dated 2016).
# Structures can show the parent of a compound that is named as a salt. Where two headings read alike, the source gives them in different places.
# Target: T1, hNaV1.7 (Homo sapiens, UniProt Q15858)
# T1 construct: expressed in transfected cells; host or cells: HEK293
# Test: QPatch NaV1.7 assay (whole-cell patch clamp, QPatch16x)
# Assay type: cell-based
# Conditions: HEK293-hNaV1.7 cells
# Outline: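 Automated whole-cell recordings in hNaV1.7-expressing HEK293 cells, holding at either −90 mV (mostly closed channels) or the half-inactivation voltage. Compounds applied cumulatively at four concentrations for 120 s each; peak current on 20 ms depolarisation to 0 mV fitted by Hill equation to yield pIC50.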
# [1] = holding voltage V1/2 SSI (half of channels inactivated), read-out: QP Nav1.7 SSI vhalf pIC50 (converted)
# [2] = holding voltage −90 mV (most channels closed), read-out: QP Nav1.7 −90 mV pIC50 (converted)
# T1 sequence (Q15858 whole entry): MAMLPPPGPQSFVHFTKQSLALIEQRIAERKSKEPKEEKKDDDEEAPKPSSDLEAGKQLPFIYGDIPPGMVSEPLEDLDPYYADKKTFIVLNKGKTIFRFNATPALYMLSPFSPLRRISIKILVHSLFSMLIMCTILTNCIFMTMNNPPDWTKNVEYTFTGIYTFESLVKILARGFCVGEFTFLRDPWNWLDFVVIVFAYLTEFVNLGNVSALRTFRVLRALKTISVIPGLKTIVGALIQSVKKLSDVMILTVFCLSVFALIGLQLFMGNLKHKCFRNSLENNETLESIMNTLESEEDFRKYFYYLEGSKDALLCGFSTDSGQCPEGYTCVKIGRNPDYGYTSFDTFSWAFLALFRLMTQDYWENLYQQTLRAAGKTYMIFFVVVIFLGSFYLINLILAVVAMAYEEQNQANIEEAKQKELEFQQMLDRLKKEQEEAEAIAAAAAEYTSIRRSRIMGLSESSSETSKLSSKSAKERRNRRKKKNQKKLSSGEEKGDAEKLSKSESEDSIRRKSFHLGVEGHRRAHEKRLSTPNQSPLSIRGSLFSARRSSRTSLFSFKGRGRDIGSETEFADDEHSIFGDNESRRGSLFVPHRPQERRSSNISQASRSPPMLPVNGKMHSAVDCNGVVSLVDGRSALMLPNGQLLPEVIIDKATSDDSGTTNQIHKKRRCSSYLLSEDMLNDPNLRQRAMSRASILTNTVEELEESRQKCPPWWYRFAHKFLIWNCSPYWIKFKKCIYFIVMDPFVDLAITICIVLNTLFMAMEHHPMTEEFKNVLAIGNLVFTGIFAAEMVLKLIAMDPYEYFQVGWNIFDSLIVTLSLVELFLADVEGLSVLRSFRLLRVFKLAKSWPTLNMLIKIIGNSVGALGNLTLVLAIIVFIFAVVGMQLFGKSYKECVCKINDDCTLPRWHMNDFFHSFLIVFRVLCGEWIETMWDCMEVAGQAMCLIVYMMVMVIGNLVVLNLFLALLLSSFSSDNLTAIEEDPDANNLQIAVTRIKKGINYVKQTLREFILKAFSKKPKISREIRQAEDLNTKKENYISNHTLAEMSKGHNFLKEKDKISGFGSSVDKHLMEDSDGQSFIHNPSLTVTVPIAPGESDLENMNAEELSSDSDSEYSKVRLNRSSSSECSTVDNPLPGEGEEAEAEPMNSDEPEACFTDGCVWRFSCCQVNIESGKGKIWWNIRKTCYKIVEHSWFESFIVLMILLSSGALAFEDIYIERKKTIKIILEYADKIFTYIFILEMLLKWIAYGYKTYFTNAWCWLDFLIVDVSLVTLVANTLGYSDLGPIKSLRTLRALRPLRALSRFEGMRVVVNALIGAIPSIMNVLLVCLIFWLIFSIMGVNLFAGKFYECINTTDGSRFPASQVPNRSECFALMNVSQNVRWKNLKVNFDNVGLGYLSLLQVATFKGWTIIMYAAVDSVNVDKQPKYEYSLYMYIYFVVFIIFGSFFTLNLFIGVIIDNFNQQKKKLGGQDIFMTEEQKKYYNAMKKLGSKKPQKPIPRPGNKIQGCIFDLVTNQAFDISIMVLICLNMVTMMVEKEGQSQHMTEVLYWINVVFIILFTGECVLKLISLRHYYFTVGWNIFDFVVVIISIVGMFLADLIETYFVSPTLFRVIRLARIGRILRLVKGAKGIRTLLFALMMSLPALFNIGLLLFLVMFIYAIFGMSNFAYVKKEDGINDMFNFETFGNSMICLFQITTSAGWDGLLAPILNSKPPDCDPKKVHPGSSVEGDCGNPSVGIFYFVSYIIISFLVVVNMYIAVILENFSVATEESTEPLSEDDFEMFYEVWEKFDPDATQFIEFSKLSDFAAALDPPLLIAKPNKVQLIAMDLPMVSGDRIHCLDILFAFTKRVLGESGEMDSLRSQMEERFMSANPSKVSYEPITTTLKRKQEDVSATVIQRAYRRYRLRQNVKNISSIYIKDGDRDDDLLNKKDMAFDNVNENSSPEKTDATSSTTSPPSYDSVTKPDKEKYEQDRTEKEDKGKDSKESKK
Structure (SMILES),IC50 [1],IC50 [2],QP Nav1.7 SSI vhalf pIC50 (holding voltage V1/2 SSI (half of channels inactivated))
"CN1CC[C@@]2(CC[C@H](c3cc(-c4ccc(OC(F)(F)F)cc4)ccn3)N2)C1=O [Example 5, (2R,5S)-7-Methyl-2-[4-(4-trifluoro-methoxy-phenyl)-pyridin-2-yl]-1,7-diaza-spiro[4.4]nonan-6-one hydrochloride]",3.98 µM,25.1 µM,–
"CCOc1ccc(-c2ccnc([C@H]3CC[C@@]4(CCN(C)C4=O)N3)c2)cc1 [Example 76, (2R,5S)-2-[4-(4-Ethoxyphenyl)-2-pyridyl]-7-methyl-1,7-diazaspiro[4.4]nonan-6-one hydrochloride]",3.98 µM,63.1 µM,–
"Cc1cc(-c2ccc(F)cc2)cc([C@H]2CC[C@@]3(CCN(C)C3=O)N2)n1 [Example 57, (2R,5S)-2-[4-(4-Fluorophenyl)-6-methyl-2-pyridyl]-7-methyl-1,7-diazaspiro[4.4]nonan-6-one hydrochloride]",3.98 µM,79.4 µM,–
"Cc1cc(-c2ccc(OC(C)C)cc2)cc([C@H]2CC[C@@]3(CCN(C)C3=O)N2)n1 [Example 85, (2R,5S)-2-[4-(4-Isopropoxyphenyl)-6-methyl-2-pyridyl]-7-methyl-1,7-diazaspiro[4.4]nonan-6-one hydrochloride]",0.316 µM,10 µM,–
"CCCOc1ccc(F)c(-c2cc(C)nc([C@@H]3CC[C@]4(CCN(C)C4=O)N3)c2)c1 [Example 201, (2S,5R)-2-[4-(2-Fluoro-5-propoxy-phenyl)-6-methyl-2-pyridyl]-7-methyl-1,7-diazaspiro[4.4]nonan-6-one hydrochloride]",0.126 µM,5.01 µM,–
"Cc1cc(-c2ccc(C(F)(F)F)cc2)cc([C@@H]2CC[C@]3(CCCNC3=O)N2)n1 [Example 98, (2S,5S)-2-[6-Methyl-4-(4-trifluoromethyl-phenyl)-pyridin-2-yl]-1,7-diaza-spiro[4.5]decan-6-one hydrochloride]",0.631 µM,25.1 µM,–
"CC1(C)C[C@]2(CC[C@H](c3cc(-c4ccc(C(F)(F)F)cc4)ccn3)N2)C(=O)N1 [Example 46, (2R,5R)-8,8-Dimethyl-2-[4-[4-(trifluoromethyl)phenyl]-2-pyridyl]-1,7-diazaspiro[4.4]nonan-6-one hydrochloride]",0.794 µM,10 µM,–
"Cc1cc(-c2cc(F)ccc2F)cc([C@H]2CC[C@@]3(CCN(C)C3=O)N2)n1 [Example 211, (2R,5S)-2-[4-(2,5-Difluorophenyl)-6-methyl-2-pyridyl]-7-methyl-1,7-diazaspiro[4.4]nonan-6-one hydrochloride]",25.1 µM,251 µM,–
"CN1CC[C@@]2(CC[C@H](c3cc(-c4cc(N5CCCC5=O)ccc4F)ccn3)N2)C1=O [Example 160, (2R,5S)-2-[4-[2-Fluoro-5-(2-oxopyrrolidin-1-yl)phenyl]-2-pyridyl]-7-methyl-1,7-diazaspiro[4.4]nonan-6-one hydrochloride]",1580 µM,–,–
"CCOc1ccc(F)c(-c2cc(C)nc([C@@H]3CC[C@]4(CCN(C)C4=O)N3)c2)c1 [Example 120, (2S,5R)-2-[4-(5-Ethoxy-2-fluoro-phenyl)-6-methyl-pyridin-2-yl]-7-methyl-1,7-diaza-spiro[4.4]nonan-6-one hydrochloride]",0.794 µM,20 µM,–
"CN1CCC[C@@]2(CC[C@H](c3cc(-c4ccc(F)cc4)ccn3)N2)C1=O [Example 71, (2R,5R)-2-[4-(4-Fluoro-phenyl)-pyridin-2-yl]-7-methyl-1,7-diaza-spiro[4.5]decan-6-one hydrochloride]",20 µM,126 µM,–
"Cc1cc(-c2ccc(C(F)(F)F)cc2)cc([C@H]2CC[C@@]3(CCN(C)C3=O)N2)n1 [Example 28, (2R,5S)-7-Methyl-2-[6-methyl-4-[4-(trifluoromethyl)phenyl]-2-pyridyl]-1,7-diazaspiro[4.4]nonan-6-one hydrochloride]",5.01 µM,31.6 µM,–
"CCOc1ccc(F)c(-c2ccnc([C@H]3CC[C@@]4(CCN(C)C4=O)N3)c2C)c1 [Example 215, (2R,5S)-2-[4-(5-Ethoxy-2-fluoro-phenyl)-3-methyl-2-pyridyl]-7-methyl-1,7-diazaspiro[4.4]nonan-6-one hydrochloride]",12.6 µM,126 µM,–
"CN1CC[C@@]2(CC[C@H](c3cc(-c4cccc(OC(F)(F)F)c4)ccn3)N2)C1=O.Cl [Example 1, (2R,5S)-7-Methyl-2-[4-[3-(trifluoromethoxy)phenyl]-2-pyridyl]-1,7-diazaspiro[4.4]nonan-6-one hydrochloride]",–,–,5.5
"CCN1[C@H](c2cc(-c3ccc(C(F)(F)F)cc3)ccn2)CC[C@]12CCCNC2=O [Example 233, hydrochloride]",12.6 µM,31.6 µM,–
"O=C1NCC[C@@]12CC[C@H](c1cc(-c3ccc(C(F)(F)F)cc3F)ccn1)N2 [Example 39, (2R,5S)-2-[4-[2-Fluoro-4-(trifluoro-methyl)phenyl]-2-pyridyl]-1,7-diazaspiro[4.4]nonan-6-one hydrochloride]",20 µM,79.4 µM,–
"CN1CC[C@@]2(CC[C@H](c3cc(-c4ccccc4F)ccn3)N2)C1=O [Example 32, (2R,5S)-2-[4-(2-Fluoro-phenyl)-pyridin-2-yl]-7-methyl-1,7-diaza-spiro[4.4]nonan-6-one hydrochloride]",39.8 µM,251 µM,–
"CCOc1ccc(Cl)c(-c2ccnc([C@H]3CC[C@@]4(CCN(C)C4=O)N3)c2)c1 [Example 181, (2R,5S)-2-[4-(2-Chloro-5-ethoxy-phenyl)-2-pyridyl]-7-methyl-1,7-diazaspiro[4.4]nonan-6-one hydrochloride]",5.01 µM,100 µM,–
"CCOc1ccc(F)c(-c2cc(OC)nc([C@H]3CC[C@@]4(CCN(C)C4=O)N3)c2)c1 [Example 250, (2R,5S)-2-[4-(5-Ethoxy-2-fluoro-phenyl)-6-methoxy-2-pyridyl]-7-methyl-1,7-diazaspiro[4.4]nonan-6-one hydrochloride]",1.26 µM,20 µM,–
"CN1CC[C@@]2(CC[C@H](c3cc(-c4cccc5c4OC(F)(F)O5)ccn3)N2)C1=O [Example 81, (2R,5S)-2-[4-(2,2-Difluoro-1,3-benzodioxol-4-yl)-2-pyridyl]-7-methyl-1,7-diazaspiro[4.4]nonan-6-one hydrochloride]",3.16 µM,200 µM,–
"CN1CC[C@@]2(CC[C@H](c3cc(-c4cc(OC(F)(F)F)ccc4F)ccn3)N2)C1=O [Example 176, (2R,5S)-2-[4-[2-Fluoro-5-(trifluoromethoxy)phenyl]-2-pyridyl]-7-methyl-1,7-diazaspiro[4.4]nonan-6-one hydrochloride]",20 µM,200 µM,–
"CCOc1cc(F)ccc1-c1ccnc([C@H]2CC[C@@]3(CCN(C)C3=O)N2)c1 [Example 169, (2R,5S)-2-[4-(2-Ethoxy-4-fluoro-phenyl)-2-pyridyl]-7-methyl-1,7-diazaspiro[4.4]nonan-6-one hydrochloride]",6.31 µM,126 µM,–
"CCOc1ccc(F)c(-c2ccnc([C@@H]3CC[C@]4(CCN(C)C4=O)N3)c2)c1 [Example 145, (2S,5R)-2-[4-(5-Ethoxy-2-fluoro-phenyl)-2-pyridyl]-7-methyl-1,7-diazaspiro[4.4]nonan-6-one hydrochloride]",6.31 µM,79.4 µM,–
